Source: article PMC6748671, “Distribution of Small Molecular Weight Drugs into the Porcine Lens: Studies on Imaging Mass Spectrometry, Partition Coefficients, and Implications in Ocular Pharmacokinetics” (Molecular Pharmaceutics, 2019)
Read-outs that look alike come from different tables or passages of the source.

Experiments:
[1] = pH 7.0; cited from earlier work
[2] = cited from earlier work
[3] = Pharmacokinetic simulation of topical timolol instillation with lens compartment; set-up: species or system rabbit
Experimental: A pharmacokinetic simulation model for rabbit was built for topical timolol instillation based on the model of Ranta et al.[25] The lens compartment, separate from the reservoir compartment, was added to the model (Figure 1). The unknown parameter values for timolol distribution clearance between aqueous humor and lens (QLENS), Kp, and clearance from tear fluid to cornea (CLTF,CO) were obtained by adjusting the values manually until the simulated concentration in the lens matched with in vivo data on timolol distribution to the rabbit lens.[26] Finally, the distribution clearance between the aqueous humor and the reservoir (QRESERVOIR) and the volume of the reservoir (VRESERVOIR) were adjusted to match the corresponding parameters in the original model. For details of the model building and parameters, see the Supporting Information. STELLA software (v8.1.1, isee systems) was used to construct the simulation model.
Kinetic simulations were carried out to estimate how drug partitioning into the lens might affect ocular pharmacokinetics after single and multiple doses of eye drops. […] The run time was 7 days and the delta time was 0.5 min.
Pharmacokinetic simulations
The pharmacokinetic simulation model was built on a model of topical timolol instillation4, where a lens compartment, separate from the reservoir compartment, was added . Experimental concentration -time data, extracted with Webplotdigitizer ( v4.2, https://automeris.io/WebPlotDig-itizer), in the aqueous humor and lens after topical dosing of timolol 5 was used as a basis for the […]
The timolol distribution clearance between aqueous humor and lens (QLENS), lens-buffer partition coefficient (Kp) and clearance from tear fluid to cornea (CL TF,CO) were obtained by com-paring the simulated curves with experimental in vivo data on timolol distribution in the rabbit […]
and QLENS values, the distribution clearance between aqueous humor and reservoir (QRESERVOIR) and volume of the reservoir (VRESERVOIR) were changed to match the corresponding parameters in the original model4 (Supplementary table 1).
Supplementary figure 6. Adjustment of the lens-aqueous humor partition coefficient (Kp), the clearance between aqueous humor and lens (QLENS) and clearance from tear fluid to cornea (CLTF,CO) with experimental data5.
(1 picture or pasted object on this page, not shown here)
Supplementary table 1. Parameters for the pharmacokinetic simulation model.

[4] = rabbit model parameter, cited from earlier work
[5] = In vitro lens/buffer partition coefficient (Kp), isolated porcine lens, cassette mix, LC–MS/MS; settings: for Kp at 4 h: pig, isolated porcine lens
[6] = set-up: method as in PMID 1898917; settings: highest Kp of previous reports; cited from earlier work
[7] = Drug distribution in the porcine lens by MALDI-IMS; settings: for share of total lens volume into which the drugs distributed: pig, 4 h; for distribution pattern in the lens (MALDI-IMS): porcine lens, 4 h in vitro incubation
Experimental: After 4 h, the buffer was removed from the vials and the lenses were rinsed with HBSS–HEPES and gently blotted dry. The lenses were weighed, snap-frozen with liquid nitrogen in flat-bottomed plastic tubes, and then stored at −80 °C until sample preparation and analysis with MALDI-IMS. For the experiment, a smaller set of 16 drugs was used.
The frozen lenses were mounted onto a chuck using an optimal cutting temperature compound (Sakura Finetek, CA, USA) on the equatorial side. The lenses were sectioned to 10 μm thickness at −20 °C on a Leica CM Cryostat (S3050, Leica Microsystems GmbH, Germany), equipped with a FEATHER Microtome C35 blade (pfm medical, UK), and collected on a cryofilm (3C16UF, SECTION-LAB Co. Ltd. Yokohama, Japan) by modified Kawamoto method.[23] The film was subsequently mounted onto a microscopy glass slide using a double-sided copper tape. The slides were washed twice with 50 mM ammonium formate for 30 s and dried in a vacuum desiccator. The sample slides contained three lens sections from the drug mixture experiment and three blanks. […] Matrix α-cyano-4-hydroxycinnamic acid (7 mg/mL in 50% acetonitrile containing 1% trifluoro acetic acid) (Sigma-Aldrich, St. Louis, MO, USA) was added via spray deposition using 10 passes, flow rate of 100 μL/min, temperature of 77 °C, track spacing of 2.5 mm, and velocity of 1300 mm/min (HTX Industries, TM-Sprayer, NC, USA).
MALDI Fourier transform-ion cyclotron resonance (FT-ICR)-IMS was performed using a Bruker 7T solariX XR mass spectrometer (Bruker Daltonics, Germany) at a 75 μm spatial resolution.
The drugs were identified as their [M + H]^+ ions. Peak finding was performed using mass error less than 2.5 ppm. MALDI images for each detected compound were plotted using a 0.01 μ mass window. From the images of the individual drugs, the intensity profiles across a 30 pixel (2.25 mm) wide area in anterior–posterior axis were plotted with ImageJ software (National Institutes of Health, USA).

[8] = in vitro; settings: pig
[9] = set-up: method as in PMID 2724118; settings: lowest Kp of previous reports; cited from earlier work
[10] = set-up: method as in PMID 7341754, PMID 2724118; settings: in rabbit and human; cited from earlier work
[11] = rabbit, adjusted from original model
[12] = rabbit, adjusted with experimental in vivo data

In the case of CCN(CC)c1ccc2c(-c3ccccc3C(=O)O)c3ccc(=[N+](CC)CC)cc-3oc2c1 [Rhodamine-B], the “experimental log D7.0” value [1] is listed as 2.
For C[C@@H]1C[C@H]2[C@@H]3CCC4=CC(=O)C=C[C@]4(C)[C@@]3(F)[C@@H](O)C[C@]2(C)[C@@]1(O)C(=O)CO [dexamethasone], the “concentration in the lens in vivo compared with aqueous humor, iris and ciliary body” value [2] is given as “much lower”.
In the case of CC(C)(C)NC[C@H](O)COc1nsnc1N1CCOCC1 [timolol], the “QRESERVOIR (distribution clearance between aqueous humor and reservoir)” value [3, 11] was 11.888 µL/min, the “VRESERVOIR (reservoir volume)” value [3, 11] was 262 µL and the “CLTF,CO (clearance from tear fluid to cornea)” value [3, 12] was 1.3 µL/min. The “QLENS (distribution clearance between aqueous humor and lens)” value [3, 12] was 0.6 µL/min, the Kp ([3]; topical, rabbit lens, adjusted manually to in vivo data on timolol distribution (Lee et al.), read-out: Kp (lens-buffer partition coefficient), model parameter) was 0.35 and the “kel (elimination rate constant)” value ([4]; aqueous humor, ref SI 4, 8) was 0.057 min⁻¹. The “CLTF,CJ (clearance from tear fluid by conjunctival absorption)” value ([4]; ref SI 4, 7) was 10.4 µL/min and the “concentration in the lens in vivo compared with aqueous humor, iris and ciliary body” value [2] was “much lower”.
In the case of O=C(O)Cc1ccccc1Nc1c(Cl)cccc1Cl [diclofenac], the “concentration equilibrium between incubate and lens at 4 h” value ([5]; porcine lens in vitro, incubation time 4 h (Figure S7)) was “would have required longer incubation time to reach true equilibria”.
With CC(=O)/N=c1/sc(S(N)(=O)=O)nn1C [methazolamide] the Kp at 4 h [5] was 0.047.
For CCCCCOc1ccc(C2SC(=O)NC2=O)cc1OCC (centres unmarked) [CT-112], the “lens Kp in previous reports” value [6] is given as 8.
In the case of CC(C)NCC(O)COc1cccc2ccccc12 (centres unmarked) [propranolol], the “share of total lens volume into which the drugs distributed” value (shortened to “share”) [7] was 27.1% and the Kp at 4 h [8] was 0.762.
For CC(C)NCC(O)COc1cccc2[nH]ccc12 (centres unmarked) [pindolol], the “share” value [7] was 27.1%.
In the case of CC[C@@H]1C(=O)OC[C@@H]1Cc1cncn1C [pilocarpine], the “share” value [7] is listed as 27.1%, the “distribution pattern in the lens (MALDI-IMS)” value [7] is listed as “only in the capsule and cortex of the lens but not in the nucleus” and the “lens Kp in previous reports” value [9] is listed as “about 0.3”. For the same molecule, the “lens Kp, previous literature” value [10] was 0.3–1.0, the “concentration in the lens in vivo compared with aqueous humor, iris and ciliary body” value [2] was “much lower” and the Kp at 4 h [5] was 0.145.
In the case of O=C1OC2(c3ccc(O)cc3Oc3cc(O)ccc32)c2ccccc21 [fluorescein sodium], the “experimental log D7.0” value [1] is given as 0.1.
In the case of Clc1ccc2nsnc2c1NC1=NCCN1 [tizanidine], the “share” value [7] was 27.1% and the “distribution pattern in the lens (MALDI-IMS)” value [7] was “only in the capsule and cortex of the lens but not in the nucleus”.
In the case of Rhodamine-123, the “experimental log D7.0” value [1] is given as 0.4.
